# Test results from patent US8492614B2, “Plant biochemical systems and uses thereof” (The Board of Trustees of the University of Illinois, priority 2007, dated 2013).
# “Also recorded” adds a separate entry of the source.
# Experiments:
# [1] = test system: glabrous soybean seedlings; assay: UV sensitivity of glabrous versus dense-hair soybean isolines; format: in vivo; details: few-hair (glabrous) variety, small amounts of UV
# Procedure: Varieties that show sensitivity to UV are retained for more detailed testing of responses to UV and exogenous regulators. […] As isoline of hard soy with dense hairs was tested vs. hard soy with few (glafrous) hairs. […] Isogenic lines of Harasoy “dense” (many hairs per area) and “glabrous” (few or no hairs per area) were used to see if hairs themselves directly assisted in protection from UV-B radiation. Seedlings were grown and treated in the same manner as that shown in FIG. 18, then the integrity of the internal structures assessed by TEM as shown in FIG. 18.
# [2] = test system: etiolated Arabidopsis seedlings; assay: Cotyledon natural fluorescence by deconvoluting microscopy; format: in vivo; details: 1.0 mM Phe in medium; salt stress; mutant seedlings; listed as Phe
# Procedure: Fluorescent images were obtained of living unfixed seedlings 24 h post BL or ABA treatment as described in the “Plant Growth and Preparation of Tissue” section. Optical sectioning was achieved by using a Zeiss Axiovert 200M microscope (Carl Zeiss), equipped with ApoTome (collected by grid projection), and a digital camera and the 4#,6-diamino-phenylindole, fluorescein isothiocyanate, and Texas Red filter sets (Chroma). Photographs of whole cotyledon fluorescence were snapped on the same microscope set up, minus the apoTome setting.
# The preparation of whole cell extracts from the areal portions of the seedlings for the quantification of Phe levels and PD1 activity levels is described in (Warpeha et al., Plant Physiol. 143:1590-1600, 2007). Phe concentration is determined by HPLC. […] Natural fluorescence of the cotyledons is visualized and quantitated by deconvoluting microscopy using a “DAPI-Long Pass” filter which allows excitation between 300-380 nm and emits with a cutoff […] 400 nm.
# If the Phe produced by activated PD1 is necessary for the ability of young etiolated seedlings to respond to UV-B, salt or heat stress, then it is possible that the addition of exogenous Phe (effectively cross feeding Phe) could restore a wild type response to GCR1, GPA1 and PD1 mutants when assayed for cotyledon fluorescence and the ability to survive sub-lethal levels of UV-C. To determine if exogenous Phe can restore wild type responses to GCR1, GPA, and PD1 mutants, 1 mM Phe is added to the top agar during planting and the experiment described above specifically testing for cotyledon surface fluorescence and the ability to survive sub-lethal levels of UV-C is repeated. Serine and […] are used as negative controls in these assays.
# The experiments described above for examining if GCR1, GPA1 and PD1 are required for young etiolated seedlings to respond to UV-B, salt or heat stress are performed but with ABA, ACC, JA and SA substituting for UV-B, salt and heat. For these experiments, ABA is tested at 1.0 μM dissolved in ethanol and applied as an atomized mist. […]
# [3] = target: T1, prephenate dehydratase (PD1) (Arabidopsis thaliana, UniProt Q9ZUY3); assay: Prephenate dehydratase activity in Arabidopsis cell free extracts; format: biochemical; details: pre-incubation in various concentrations
# T1 construct: from tissue; host or cells: aerial portions of etiolated (dark-grown) wild-type Col Arabidopsis seedlings; crude cell-free / cytosolic extract
# T1 sequence (Q9ZUY3 25-424): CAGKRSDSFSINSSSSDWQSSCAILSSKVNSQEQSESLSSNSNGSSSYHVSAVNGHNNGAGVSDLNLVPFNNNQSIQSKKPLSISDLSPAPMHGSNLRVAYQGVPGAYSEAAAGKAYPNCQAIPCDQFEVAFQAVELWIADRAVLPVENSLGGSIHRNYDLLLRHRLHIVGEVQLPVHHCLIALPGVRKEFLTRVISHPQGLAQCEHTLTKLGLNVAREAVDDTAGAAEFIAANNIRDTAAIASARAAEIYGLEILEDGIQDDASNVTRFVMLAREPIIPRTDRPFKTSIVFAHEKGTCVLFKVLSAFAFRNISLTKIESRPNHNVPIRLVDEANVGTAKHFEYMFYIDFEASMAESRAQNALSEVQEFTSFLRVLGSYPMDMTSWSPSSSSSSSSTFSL
# Procedure: 143:1590-1600). […] Absorbance and stability characteristics are tested at different pH concentrations between 6.8-8.0. Absorbance and stability characteristics are tested at different temperatures and durations of storage on the pigments and phenylalanine characteristics in solution for Arabidopsis and this is done for all crop plant types tested. The aerial portions of six-day-old dark grown Arabidopsis seedlings were harvested into potassium phosphate buffer (pH 7.5; 50 mM), DTT (1 mM), and plant protease cocktail (Sigma), and homogenized for 60 sec at a setting of #6 in a Polytron. Cell debris was removed by centrifugation. All steps were carried out at 4° C. All plants types would be harvested by this method between 6-8 days after planting in darkness. […] Production of phenylpyruvate was determined spectrophotometrically. […] See […] et al., Plant Physiol. 140:844-855.
smiles,measurement,setting,value
N[C@@H](Cc1ccccc1)C(=O)O [phenylalanine],correction of UV damage in the glabrous variety,[1],can correct these deficiencies
same,restoration of cotyledon surface fluorescence in mutants,[2],can restore the responses in the mutants to those observed for wild type seedlings; also recorded: can restore wild type responses to AGB1 and AGG1 mutants
same,effect of pre-incubation on the reaction producing phenylalanine,[3],inhibited
